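The compound was tested at five concentrations on cells cultured in 96-well plates, with a 48-hour exposure period. Definition used: TGI = concentration required for complete inhibition of growth.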 *1 amine or outer side, *2 acyl side, *3 side chain or, on linkers, in order; H or OH if unused. Where a SMILES comes first, the peptide text is derived from it. Bridges are numbered along the chain shown (N, C = ends). Roman numbers before positions name the chains, in order. [ ]: non-standard residue; d: D form. Actinocin(9to1) = Cc1c2oc3c(C)ccc(C(=O)[*:1])c3nc-2c(C(=O)[*:2])c(N)c1=O; Hyp = O=C(O)[CH]1C[CH](O)CN1; NMeV = CN[CH](C(=O)O)C(C)C; Sar = CNCC(=O)O
Experiments:
Test in all cases: DTP human tumour cell line panel, 48 h
[1] = system: BT-549 breast
[2] = system: NCI-H226 lung
[3] = system: IGROV1 ovarian
[4] = system: HOP-92 NSCLC
[5] = system: KM12 colon
[6] = system: COLO 205 colon
[7] = system: HCT-15 colon
[8] = system: UO-31 renal
[9] = system: SK-MEL-5 melanoma
[10] = system: K-562 leukemia
[11] = system: RPMI-8226 leukemia
[12] = system: UACC-257 melanoma
[13] = system: OVCAR-4 ovarian
[14] = system: HCC-2998 colon

Row | Compound | TGI [1] [µM] | TGI [2] [µM] | TGI [3] [µM] | TGI [4] [µM] | TGI [5] [µM] | TGI [6] [µM] | TGI [7] [µM] | TGI [8] [µM] | TGI [9] [µM] | TGI [10] [µM] | TGI [11] [µM] | TGI [12] [µM] | TGI [13] [µM] | TGI [14] [µM]
1 | Cc1cc(Nc2ccc(NS(C)(=O)=O)cc2)c2c(ccc3nccc32)[nH]1 | 43.9 | 41.9 | 86.3 | 65.6 | 36.2 | 35.8 | > 100 | > 100 | 29.1 | 34.6 | 40.7 | 34.7 | 30.6 | –
2 | COC(=O)c1ccccc1/C=C1\Cc2ccc3c(c2C1=O)CCCC3 | > 100 | > 100 | > 100 | – | > 100 | > 100 | > 100 | > 100 | – | > 100 | > 100 | > 100 | > 100 | > 100
3 | C=CCN1/C(=C2\SC(=S)N(c3ccc(C)cc3)C2=O)Sc2c1ncn(C)c2=O | – | > 100 | > 100 | > 100 | > 100 | > 100 | > 100 | > 100 | > 100 | > 100 | > 100 | > 100 | > 100 | > 100
4 | O=C(OC1CN2CCC1CC2)N(c1ccccc1)c1ccccc1 (stereo unspecified) | > 100 | > 100 | > 100 | > 100 | – | > 100 | > 100 | > 100 | > 100 | > 100 | > 100 | > 100 | > 100 | –
5 | Cc1cc(S(=O)(=O)Nc2nncn2-c2ccc(Cl)cc2)c(S)cc1Cl | > 10 | > 10 | > 10 | – | > 10 | > 10 | > 10 | – | > 10 | > 10 | > 10 | > 10 | > 10 | > 10
6 | C=CCOC(=O)N1c2ccc(O)cc2[C@@]23O[C@@]24[C@@H]1C#C/C=C\C#C[C@]3(O)C(OC)(OC)C[C@@H]4C | – | 74.3 | 80.8 | 77.9 | 69.7 | 33.1 | > 100 | > 100 | 27.4 | > 100 | 91.5 | 44.1 | 47.2 | > 100
7 | Cn1c2ccccc2c2cc(N3CCCC3)c3c(c21)C(=O)N(c1ccccc1)C3=O | > 100 | > 100 | > 100 | – | > 100 | > 100 | > 100 | > 100 | > 100 | > 100 | > 100 | > 100 | > 100 | > 100
8 | Cc1c(Cl)cccc1N=NC(=O)NNc1cccc(Cl)c1C | 27.7 | 32.6 | 19.6 | – | – | – | 30 | 26.3 | 28.6 | 40.5 | > 100 | 42.1 | 25.9 | 31.1
9 | Cc1cc2n[n+]3[n-]cc(-c4ccccc4)n3c2cc1[N+](=O)[O-] | > 100 | – | > 100 | > 100 | > 100 | > 100 | > 100 | > 100 | > 100 | > 100 | > 100 | > 100 | > 100 | –
10 | COC(=O)C1=C(C(=O)OC)C(N(C)C)C(C(=O)OC)=C(C(=O)OC)S1 | > 100 | > 100 | – | – | > 100 | > 100 | > 100 | > 100 | – | > 100 | > 100 | > 100 | > 100 | > 100
11 | O=C(N/N=C\c1cccc2ccccc12)Nc1cccc2ccccc12 | > 100 | > 100 | > 100 | – | > 100 | > 100 | > 100 | > 100 | > 100 | 15.6 | – | > 100 | – | > 100
12 | Cc1c2oc3c(C)ccc(C(=O)NC4C(=O)NC(C(C)C)C(=O)N5CC(O)CC5C(=O)N(C)CC(=O)N(C)C(C(C)C)C(=O)OC4C)c3nc-2c(C(=O)NC2C(=O)NC(C(C)C)C(=O)N3CC(O)CC3C(=O)N(C)CC(=O)N(C)C(C(C)C)C(=O)OC2C)c(N)c1=O (stereo unspecified) (I: TV[Hyp][Sar][NMeV] / II: TV[Hyp][Sar][NMeV]; ester I:1-I:C, II:1-II:C; linker I:N-II:N via Actinocin(9to1); configuration not given here) | – | > 1 | > 1 | > 1 | > 1 | > 1 | > 1 | > 1 | > 1 | > 1 | > 1 | > 1 | > 1 | > 1
13 | Cc1ccc(S(=O)(=O)C2=c3nc4ccccc4cc3=C3C(=O)c4ccccc4C(=O)C32)cc1 (stereo unspecified) | – | > 100 | > 100 | > 100 | > 100 | > 100 | > 100 | > 100 | > 100 | > 100 | > 100 | > 100 | > 100 | > 100
14 | OC12c3ccccc3C1CCCCCCCCCC21OCCO1 (stereo unspecified) | – | > 100 | > 100 | – | > 100 | > 100 | > 100 | > 100 | > 100 | > 100 | > 100 | > 100 | > 100 | > 100
15 | CCSc1nc(=S)n(-c2ccccc2)c(C)c1C(C)=O | – | > 100 | > 100 | > 100 | > 100 | > 100 | > 100 | > 100 | > 100 | > 100 | > 100 | > 100 | > 100 | > 100
16 | CCOC(=O)C(Cc1ccccc1)NC(=O)c1[nH]cnc1/N=N/N(C)C (stereo unspecified) | – | > 100 | > 100 | – | > 100 | > 100 | > 100 | > 100 | > 100 | > 100 | > 100 | > 100 | > 100 | > 100

Source: PubChem BioAssay (NCI)
